Reference: patent publication US10105384B2, “Nucleic acids targeting TCTP for use in the treatment of chemo- or hormone-resistant cancers” (INSTITUT NATIONAL DE LA SANTE ET DE LA RECHERCHE MEDICALE …, priority 2010, dated 2018)
d = 2'-deoxy (DNA); r = 2'-OH (RNA)

What was measured:
Type in all cases: cell-based, human
[1] = system: LNCaP-Hsp27 cells; test: Crystal violet cell growth assay, LNCaP-Hsp27 cells
Protocol: (§1) In brief, cells were seeded in each well of 12-well microtiter plates (30 000 to 50 000 cells per well) and allowed to attach overnight. To study the effect of TCTP downregulation on apoptosis induced by docetaxel, PC-3 cells were transiently transfected the day after seeding with 5 nM of TCTP siRNA for 48 h or 100 nM of TCTP ASO for 72 h. Cells were then treated with 50 nM of docetaxel and MTT assays were performed after 24 h. To assess the effect of TCTP downregulation on Hsp27 cytoprotection, LNCaP-Mock and -Hsp27 cells were transiently transfected the day after seeding with 5 nM of TCTP siRNA for 48 h. The down- or upregulation of TCTP effect on LNCaP and C4-2 cell viability was realized after transient transfections with 100 nM of TCTP ASO or 0.02 μg/μl of pDEST-TCTP for 72 h and 48 h respectively. Cells were then treated with 1 nM of docetaxel in serum-free media (mimics androgen withdrawal in vitro) and crystal violet assays were performed the day after. Each assay was performed in triplicate.
To study the functional role of TCTP in CRPC, siRNA-induced inhibition of TCTP expression was used to determine whether the reduction of TCTP expression affects LNCaP-Mock and -Hsp27 cell growth after combined androgen withdrawal and docetaxel-chemotherapy treatment in vitro.
In order to study consequences of TCTP inhibition on cell survival after combined androgen withdrawal and docetaxel-chemotherapy treatment, cell viability of LNCaP-Mock and -Hsp27 was determined using crystal violet dye after 24 h treatment with 1 nM of docetaxel in serum-free media (mimics androgen withdrawal in vitro). […] After TCTP siRNA plus docetaxel in serum-free medium treatment (mimics androgen withdrawal in vitro), we found an 80% (**, P≤0.01) reduction in LNCaP-Hsp27 cell growth rate versus a 50% (**, P≤0.01) reduction in LNCaP-Mock compared to control.

[2] = system: C4-2 cells; test: Crystal violet cell growth assay, C4-2 cells
Protocol: as §1
(§2) Finally, in order to assess if TCTP ASO has the same effect on prostatic cancer cell lines expressing the androgen receptor (AR), crystal violet dye was used to examin LNCaP and C4-2 cell growth. LNCaP and C4-2 were treated with 100 nM TCTP or control ASO (FIGS. 15 A and B) for 2 days. Then, LNCaP and C4-2 cells were incubated with 1 nM of docetaxel in serum-free media.

[3] = system: LNCaP cells; test: Crystal violet cell growth assay, LNCaP cells
Protocol: as §1, §2

Substance	cytoprotection to androgen withdrawal and docetaxel conferred by Hsp27 overexpression ([1]; siRNA 5 nM)	reduction in LNCaP-Hsp27 cell growth rate ([1]; siRNA 5 nM alone, compared with control) [%]	reduction in LNCaP-Hsp27 cell growth rate ([1]; siRNA plus 1 nM docetaxel in serum-free medium, 24 h) [%]	C4-2 cell growth ([2]; 100 nM ASO for 2 days)	sensitivity to docetaxel and androgen withdrawal ([2]; C4-2, 100 nM ASO 2 days then 1 nM docetaxel in serum-free media)	LNCaP cell growth ([3]; 100 nM ASO for 2 days)	sensitivity to docetaxel and androgen withdrawal ([3]; LNCaP, 100 nM ASO 2 days then 1 nM docetaxel in serum-free media)
5′-AACCCGUCCGCGAUCUCCCdGdG-3′ (AACCCGUCCGCGAUCUCCCGG; siRNA; sugars from the 5' end r19 d2, backbone not given here) [TCTP siRNA, from Qiagen]	reversed the cytoprotection	50	80	–	–	–	–
5′-ACCAATGAGCGAGTCATCAA-3′ (phosphorothioate backbone, further chemistry not given here) [ASO10]	–	–	–	considerably decrease	enhance treatments (docetaxel and androgen withdrawal) sensitivity	considerably decrease	enhance treatments (docetaxel and androgen withdrawal) sensitivity
